Earlier results in patent US20240397942A1, “METHOD FOR PRODUCING REPELLENT OR ATTRACTANT FOR ORGANISMS, REPELLENT OR ATTRACTANT FOR ORGANISMS, AND METHOD FOR REPELLING OR ATTRACTING ORGANISMS” (Sony Group Corporation, priority 2021, published 2024).

Legend:
Details in all cases: in vivo
[1] = test system: Mexican bean beetles
[2] = test system: flour beetles
[3] = test system: whiteflies (infection vector of tomato yellowing gangrene virus)
[4] = test system: house dust mites (indoor mites)
[5] = test system: peach-potato aphids
[6] = test system: fruit flies
[7] = test system: Asian tiger mosquitoes
[8] = test system: giant assassin bugs
[9] = test system: plant hoppers (rice pests)
[10] = test system: stink bugs
[11] = test system: sirex woodwasps
[12] = test system: spider mites
[13] = test system: organisms
[14] = test system: malaria mosquitoes
[15] = test system: green tea leafhoppers

Q: With `C=CCCCCCCCCCCCC` [1-tetradecene] as the compound, how does the “repellent effect on Mexican bean beetles” value [1] read?
A: repellent effect

Q: What about the “repellent effect on flour beetles” value [2] of the same compound?
A: repellent effect

Q: For `CCCCC(CC)CO` (stereo not shown) [2-ethyl-1-hexanol], which “attractant effect on whiteflies” value [3] is on record?
A: attractant effect

Q: Which “attractant effect on house dust mites (indoor mites)” value [4] does the source give for `CCCCCCCCCC=O` [Example 1-decanal, 1-decanal] here?
A: attractant effect

Q: For `CCCCCC=O` [Example 1-hexanal, 1-hexanal], which “attractant effect on peach-potato aphids” value [5] is on record?
A: attractant effect

Q: Which “attractant effect on house dust mites (indoor mites)” value [4] does the source give for `CCCCCCCC=O` [Example 1-octanal, 1-octanal] here?
A: attractant effect

Q: For `CC=O` [acetaldehyde], which “attractive (attractant) effect on fruit flies” value [6] is on record?
A: attractant effect

Q: Which “attractant effect on Asian tiger mosquitoes” value [7] does the source give for `CC(=O)O` [acetic acid] here?
A: attractant effect

Q: Which results are given for `CC(=O)c1ccccc1` [acetophenone]?
A: repellent effect on giant assassin bugs [8]: repellent effect; attractive effect on plant hoppers (rice pests) [9]: attractive effect; attractive effect on stink bugs [10]: attractive effect; repellent effect on sirex woodwasps [11]: repellent effect

Q: For `CC(=O)CC(C)=O` [acetylacetone], which “repellent effect on sirex woodwasps” value [11] is on record?
A: repellent effect

Q: With `O=Cc1ccccc1` [benzaldehyde] as the compound, how does the “attractive (attractant) effect on fruit flies” value [6] read?
A: attractive effect

Q: Which “repellent effect on spider mites” value [12] does the source give for `CCCCCCCCCCCCCCCC` [hexadecane] here?
A: repellent effect

Q: For `C=Cc1ccccc1` [styrene], which “repellent or attractant effect on organisms” value [13] is on record?
A: no repellent or attractant effect

Q: For `CCCCCCCCCCCCCC` [tetradodecane], which “repellent effect on malaria mosquitoes” value [14] is on record?
A: repellent effect

Q: Which “repellent effect on green tea leafhoppers” value [15] does the source give for hexadecene here?
A: repellent effect

Q: For xylene, which “repellent effect on whiteflies” value [3] is on record?
A: repellent effect
